Measurements as given in patent US9775881B2, “Methods of treating mesothelioma by administration of compounds comprising FGFR1 ECD” (Five Prime Therapeutics, Inc., priority 2013, dated 2017).

Key:
Type in all cases: in vivo, mouse
[1] = test system: HepG2 xenograft model; assay: HepG2 xenograft model, FGFR1-ECD.339-Fc alone and with sorafenib
Protocol: FGFR1-ECD.339-Fc as a single agent, and in combination with sorafenib, was also tested in a HepG2 xenograft model.

[2] = test system: SK-Hep-1 xenograft model; assay: SK-Hep-1 xenograft model, FGFR1-ECD.339-Fc alone and with sorafenib; settings: 61 days, FGFR1-ECD.339-Fc 15 mg/kg IP twice per week (p=0.0036), sorafenib 20 mg/kg oral five times per week (p<0.0001)
Protocol: (§1) The cells were implanted subcutaneously over the right flank of the mice at 5×10^6 cells/100 μl/mouse.

[3] = test system: HLF xenograft model; assay: HLF xenograft model, FGFR1-ECD.339-Fc alone and with sorafenib; settings: 24 days, FGFR1-ECD.339-Fc 15 mg/kg IP twice per week (p=0.0175), sorafenib 20 mg/kg oral five times per week (p=0.0020)
Protocol: Six week old female CB17 SCID mice were purchased from Charles River Laboratories (Wilmington, Mass.) and were acclimated for 1 week before the start of the study. […] The cells were cultured for three passages in complete growth medium to expand for implantation. HLF cells were cultured in Dulbecco's Modified Eagle Medium (DMEM) supplemented with 10% Fetal Bovine Serum (FBS) and Antibiotic-Antimycotic solution. Cells were grown at 37° C. in a humidified atmosphere with 5% CO2.
The cells were implanted subcutaneously over the right flank of the mice at 2.5×10^6 cells/100 μl/mouse. Mice were monitored twice weekly following cell implantation for tumor growth. […]
FGFR1-ECD.339-Fc or albumin as a negative control, was dosed at 15 mg/kg via intraperitoneal (IP) injection twice per week. […] Upon initiation of therapy, tumor sizes were measured in each mouse twice weekly. The length and width of each tumor was measured using calipers and the tumor size calculated according to the formula above. […]
Comparisons of tumor volume as a consequence of treatment with FGFR1-ECD.339-Fc and/or sorafenib were determined to be statistically significant if P<0.05. P-values were calculated using unpaired, two-tailed t-test analyses of the calculated tumor volumes on day 24 following initiation of treatment.

[4] = test system: NCI-H226 xenograft; assay: NCI-H226 mesothelioma tumor xenograft model, dose response; settings: SCID mice, day 29
Protocol: Seven week old female SCID mice (Taconic, Hudson, N.Y.) were implanted subcutaneously with NCI-H226 cells (ATCC, Manassas, Va.) at 5×10^6 cells/mouse and tumor-bearing mice were randomized into 4 groups (n=8/group) when tumors reached ˜176-277 mm^3 in size. Mice were treated with FGFR1-ECD.339-Fc at three different concentrations (1.024, 5.12 or 25.6 mg/kg) three times a week (t.i.w.) for 29 days. Tumor size and body weights were measured twice a week.

[5] = test system: Caki-2 xenograft model; assay: Caki-2 xenograft model, FGFR1-ECD.339-Fc alone and with pazopanib; settings: FGFR1-ECD.339-Fc 15 mg/kg IP twice per week, pazopanib 100 mg/kg oral daily
Protocol: as §1

[6] = test system: ACHN xenograft model; assay: ACHN xenograft model, FGFR1-ECD.339-Fc alone and with pazopanib
Protocol: as §1

[7] = test system: Huh7 xenograft model; assay: Huh7 xenograft model, FGFR1-ECD.339-Fc single agent; settings: 15 mg/kg IP twice per week
Protocol: (§2) Six week old female CB17 SCID mice were purchased from Charles River Laboratories (Wilmington, Mass.) and were acclimated for 1 week before the start of the study. Human hepatocellular carcinoma (HCC) cell lines HepG2 and Hep3B were purchased from ATCC (Manassas, Va.) and Huh7 was purchased from JCRB (Japanese Collection of Research Bioresources). The cells were cultured for three passages in complete growth medium to expand for implantation. HepG2 and Hep3B cells were cultured in Dulbecco's Modified Eagle Medium (DMEM) supplemented with 10% Fetal Bovine Serum (FBS), 2 mM L-Glutamine, and Penicillin-Streptomycin antibiotic solution. […]
(§3) When the cultured cells reached 85-90% confluence, cells were harvested and resuspended in cold Ca^2+ and Mg^2+ free phosphate buffered saline (PBS) containing 50% Matrigel. […] Mice were monitored twice weekly following cell implantation for tumor growth.
(§4) FGFR1-ECD.339-Fc (FP-1039) or albumin as a negative control was dosed at 15 mg/kg via intraperitoneal injection twice per week. […] Upon initiation of therapy, tumor sizes were measured in each mouse twice weekly. The length and width of each tumor was measured using calipers and the tumor size calculated according to the formula Tumor size (mm^3)=[…]. […]
(§5) Comparisons of tumor volume as a consequence of treatment with FP-1039 were determined to be statistically significant if P<0.05. […]

[8] = test system: HepG2 xenograft model; assay: HepG2 xenograft model, FGFR1-ECD.339-Fc single agent; settings: 15 mg/kg IP twice per week
Protocol: as §2, §3, §4, §5

[9] = test system: 786-0 xenograft model; assay: 786-0 xenograft model, FGFR1-ECD.339-Fc alone and with pazopanib; settings: FGFR1-ECD.339-Fc 15 mg/kg IP twice per week, pazopanib 100 mg/kg oral daily
Protocol: as §1

[10] = test system: NCI-H226 (mesothelioma) xenograft; assay: Blood vessel density by MECA-32 IHC in NCI-H226 xenograft tumors; settings: NCI-H226 tumors harvested day 30; 1.024, 5.12 or 25.6 mg/kg t.i.w. for 29 days
Protocol: Endothelial cell immunohistochemical (IHC) staining using a rat anti-mouse pan-endothelial cell antigen antibody (MECA-32; BD Biosciences, Franklin Lakes, N.J.) was performed on tumors from a NCI-H226 (mesothelioma) xenograft study. Tumor-bearing mice were treated with either vehicle (0.9% saline) or increasing doses of FGFR1-ECD.339-Fc (1.024, 5.12, or 25.6 mg/kg) three times a week (t.i.w.) for 29 days, as described above. Tumors were harvested on day 30. Quantification of MECA-32 IHC staining was analyzed by measuring the number of blood vessels/tissue area.

[11] = test system: SK-Hep-1 xenograft model; assay: SK-Hep-1 xenograft model, FGFR1-ECD.339-Fc alone and with pazopanib; settings: 15 mg/kg IP twice per week, p=0.0076
Protocol: as §1

[12] = test system: A498 xenograft model; assay: A498 xenograft model, FGFR1-ECD.339-Fc alone and with pazopanib; settings: FGFR1-ECD.339-Fc 15 mg/kg IP twice per week, pazopanib 100 mg/kg oral daily
Protocol: as §1

[13] = test system: MSTO-211H xenograft; assay: MSTO-211H mesothelioma tumor xenograft model, dose response; settings: SCID mice, day 29
Protocol: Five to six week old female SCID mice were implanted subcutaneously with MSTO-211H cells (ATCC, Manassas, Va.) at 5×10^6 cells/mouse and tumor-bearing mice were randomized into 3 groups (n=10/group) when tumors reached ˜150-225 mm^3 in size. Mice were treated with FGFR1-ECD.339-Fc at two different concentrations (5.12 or 25.6 mg/kg) three times a week (t.i.w.) for 29 days. Tumor size and body weights were measured twice a week.

[14] = test system: Hep3B xenograft model; assay: Hep3B xenograft model, FGFR1-ECD.339-Fc single agent; settings: 15 mg/kg IP twice per week
Protocol: as §2, §3, §4, §5

Molecule | single agent effect on tumor growth [1] | response of xenograft model to single therapy (tumor volume) [2] | response of xenograft model to single therapy (tumor volume) [3] | tumor growth inhibition (TGI) ([4]; 1.024 mg/kg three times a week) [%] | tumor growth inhibition (TGI) ([4]; 5.12 mg/kg three times a week) [%] | tumor growth inhibition (TGI) ([4]; 25.6 mg/kg three times a week) [%] | response of xenograft model to single therapy (tumor volume) [5] | tumor growth inhibition ([6]; CB17 SCID mice, 15 mg/kg IP twice per week, day 63, p<0.0001) [%] | response of xenograft model to single therapy (tumor volume) ([6]; FGFR1-ECD.339-Fc 15 mg/kg IP twice per week) | single agent efficacy (tumor volume) [7] | single agent efficacy (tumor volume) [8] | response of xenograft model to single therapy (tumor volume) [9] | blood vessel density (MECA-32 IHC), inner region [10] | blood vessel density (MECA-32 IHC), outer region [10] | blood vessel density (MECA-32 IHC), outer+inner region (whole tumor mass) [10] | response of xenograft model to single therapy (tumor volume) [11] | response of xenograft model to single therapy (tumor volume) [12] | tumor growth inhibition (TGI) ([13]; 5.12 mg/kg three times a week) [%] | tumor growth inhibition (TGI) ([13]; 25.6 mg/kg three times a week) [%] | single agent efficacy (tumor volume) [14]
CNC(=O)c1cc(Oc2ccc(NC(=O)Nc3ccc(Cl)c(C(F)(F)F)c3)cc2)ccn1 [sorafenib, reference compound] | inhibits tumor growth | responded | responded |  |  |  |  |  |  |  |  |  |  |  |  |  |  |  |  | 
FGFR1-ECD.339-Fc: human FGFR1 extracellular domain ending at amino acid 339 fused to Fc; SEQ ID NO: 6 (mature form) or SEQ ID NO: 5 (with signal peptide) | not effective as a single agent | responded | responded | 16.2 | 56.8 | 77.8 | little response | 51 | responded | no single agent efficacy | no single agent efficacy | did not respond | no significant differences | dose-dependent and a statistically-significant reduction | dose-dependent and a statistically-significant reduction | responded | little response | 20.3 | 50.1 | no single agent efficacy
